Measured values published in US20240024273A1, “TOPICAL ADMINISTRATION OF 2-(DIETHYLAMINO)ETHYL 2-(4-ISOBUTYLPHENYL)PROPRIONATE FOR TREATMENT OF DISEASES” (TECHFIELDS PHARMA CO., LTD., priority 2020, published 2024).

Tested on: Mild to Moderate Osteoarthritis of the Knee
Assay: Phase 2 study: WOMAC joint stiffness subscale score
Assay type: in vivo, human
Conditions: for Change of WOMAC Joint Stiffness score from baseline (±SEM) / Percentage of improvement from baseline, WOMAC Joint Stiffness score: all patients taken as active
Excerpt: This is a Phase 2, multicenter, randomized, double blind (within dose), placebo controlled, parallel group, proof of concept, and dose range finding study to evaluate the efficacy, safety, and PK of 2-(diethylamino)ethyl 2-(4-isobutylphenyl)propionate hydrochloride spray in adult subjects with clinically symptomatic mild to moderate OA of the knee. For subjects with bilateral knee pain, both knees will be treated, but the most symptomatic knee (i.e., the most painful knee as measured by the Western Ontario and McMaster University Osteoarthritis Index [WOMAC® 3.1] pain subscale score at Screening) will be designated as the target knee for efficacy analyses. For subjects with unilateral knee pain, only the symptomatic (target) knee will be treated.
After a Screening Period of up to 3 weeks and radiographic evaluation of the target knee joint space, a subject will be randomly assigned to 1 of 3 treatment groups in a 1:1:1 ratio with a 2:1 ratio of active:placebo within each treatment group (ie, 2 subjects to active treatment and 1 subject to placebo): • Group A: 8.75 mg 2-(diethylamino)ethyl 2-(4-isobutylphenyl)propionate/knee (2 sprays/knee, one spray to the medial surface and one spray to the lateral surface of the knee), twice daily (BID, approximately every 12 hours; n=50) or placebo (2 sprays/knee), BID (approximately every 12 hours; n=25) for a total of 4 sprays per knee per day; • Group B: 17.5 mg 2-(diethylamino)ethyl 2-(4-isobutylphenyl)propionate/knee (4 sprays/knee, one spray to the medial surface and one spray to the lateral surface of the knee, and one spray to front and one spray to the back of the knee), BID (approximately every 12 hours; n=50) or placebo (4 sprays/knee), BID (approximately every 12 hours; n=25) for a total of 8 sprays per knee per day; • Group C: 35 mg 2-(diethylamino)ethyl 2-(4-isobutylphenyl)propionate/knee (8 sprays/knee, each spray is to be applied to a different non-overlapping area around the knee, and the areas are to be uniformly distributed around the knee), BID (approximately every 12 hours; n=50) or placebo (8 sprays/knee), BID (approximately every 12 hours; n=25) for a total of 16 sprays per knee per day.
The VAS version of the WOMAC will be used for the Primary and Secondary Efficacy Endpoints. Efficacy endpoints will be assessed at Screening and Baseline (Day 1) and at the Week 2, Week 4, Week 8, and Week 12/EOS visits.
3.9.2. Secondary Efficacy Endpoints: • 1. Change from Baseline in the WOMAC (VAS) pain subscale score for the target knee at 2, 4, and 8 weeks of treatment; • 2. Change from Baseline in the WOMAC (VAS) stiffness subscale scores for the target knee and WOMAC (VAS) functional ability subscale scores at 2, 4, 8, and 12 weeks of treatment; • 3. Change from Baseline in the overall WOMAC (VAS) score at 2, 4, 8, and 12 weeks of treatment.
The Secondary Efficacy Endpoints, change from Baseline in the WOMAC subscale scores for pain, stiffness, and functional ability, and overall WOMAC score at 2, 4, 8, and 12 weeks of treatment, will be analyzed using the same methods as for the Primary Efficacy Endpoint.
To determine this, we assumed that all patients received 2-(diethylamino)ethyl 2-(4-isobutylphenyl)propionate, active drug treatment (i.e. all patients who received 2-(diethylamino)ethyl 2-(4-isobutylphenyl)propionate or placebo treatment for 12 weeks or mixed up treatment during the 12-week treatment, as 2-(diethylamino)ethyl 2-(4-isobutylphenyl)propionate-treated). Based on this assumption, that is, to treat this trial as an open-label study and that all patients received active treatment, we conducted efficacy analysis using top-line efficacy datasets prepared by CRO and the re-analysis results are presented in the following tables (Tables 29-47). […] (William G. Bensen, Justus J. Fiechtner, James 1. McMillen, et. al. Treatment of Osteoarthritis with Celecoxib. Mayo Clin Proc, November 1999. Vol 74, 1095-1105.)

[1] = 8.75 mg/knee (BID), Follow up (week 13, day 91)
[2] = 8.75 mg/knee (BID), Week 2 (day 14)
[3] = 8.75 mg/knee (BID), Week 4 (day 28)
[4] = 8.75 mg/knee (BID), Week 8 (day 56)
[5] = 8.75 mg/knee (BID), Week 12 (day 84)
[6] = 17.5 mg/knee (BID), Follow up (week 13, day 91)
[7] = 17.5 mg/knee (BID), Week 2 (day 14)
[8] = 17.5 mg/knee (BID), Week 4 (day 28)
[9] = 17.5 mg/knee (BID), Week 8 (day 56)
[10] = 17.5 mg/knee (BID), Week 12 (day 84)
[11] = 35 mg/knee (BID), Follow up (week 13, day 91)
[12] = 35 mg/knee (BID), Week 2 (day 14)
[13] = 35 mg/knee (BID), Week 4 (day 28)

## CCN(CC)CCOC(=O)C(C)c1ccc(CC(C)C)cc1 (stereo not shown) [2-(diethylamino)ethyl 2-(4-isobutylphenyl)propionate]
[1]
  Change of WOMAC Joint Stiffness score from baseline (±SEM), adjusted by […] of the Testing Drug Amount: −39.1(±5.1) mm
  Percentage of improvement from baseline, WOMAC Joint Stiffness score, adjusted by […] of the Testing Drug Amount: −60.9%
  Change of WOMAC Joint Stiffness score from baseline (±SEM): −22.8(±3.7) mm
  Percentage of improvement from baseline, WOMAC Joint Stiffness score: −35.5%
[2]
  Change of WOMAC Joint Stiffness score from baseline (±SEM), adjusted by […] of the Testing Drug Amount: −20.1(±4.3) mm
  Percentage of improvement from baseline, WOMAC Joint Stiffness score, adjusted by […] of the Testing Drug Amount: −31.2%
  Change of WOMAC Joint Stiffness score from baseline (±SEM): −11.7(±2.5) mm
  Percentage of improvement from baseline, WOMAC Joint Stiffness score: −18.2%
[3]
  Change of WOMAC Joint Stiffness score from baseline (±SEM), adjusted by […] of the Testing Drug Amount: −31.7(±5.7) mm
  Percentage of improvement from baseline, WOMAC Joint Stiffness score, adjusted by […] of the Testing Drug Amount: −49.4%
  Change of WOMAC Joint Stiffness score from baseline (±SEM): −18.5(±3.3) mm
  Percentage of improvement from baseline, WOMAC Joint Stiffness score: −28.8%
[4]
  Change of WOMAC Joint Stiffness score from baseline (±SEM), adjusted by […] of the Testing Drug Amount: −37.6(±6.0) mm
  Percentage of improvement from baseline, WOMAC Joint Stiffness score, adjusted by […] of the Testing Drug Amount: −58.5%
  Change of WOMAC Joint Stiffness score from baseline (±SEM): −21.9(±3.5) mm
  Percentage of improvement from baseline, WOMAC Joint Stiffness score: −34.1%
[5]
  Change of WOMAC Joint Stiffness score from baseline (±SEM), adjusted by […] of the Testing Drug Amount: −38.4(±5.3) mm
  Percentage of improvement from baseline, WOMAC Joint Stiffness score, adjusted by […] of the Testing Drug Amount: −59.7%
  Change of WOMAC Joint Stiffness score from baseline (±SEM): −22.4(±3.1) mm
  Percentage of improvement from baseline, WOMAC Joint Stiffness score: −34.8%
[6]
  Change of WOMAC Joint Stiffness score from baseline (±SEM), adjusted by […] of the Testing Drug Amount: −44.7(±6.2) mm
  Percentage of improvement from baseline, WOMAC Joint Stiffness score, adjusted by […] of the Testing Drug Amount: −65.9%
  Change of WOMAC Joint Stiffness score from baseline (±SEM): −26.1(±3.6) mm
  Percentage of improvement from baseline, WOMAC Joint Stiffness score: −38.4%
[7]
  Change of WOMAC Joint Stiffness score from baseline (±SEM), adjusted by […] of the Testing Drug Amount: −32.2(±4.3) mm
  Percentage of improvement from baseline, WOMAC Joint Stiffness score, adjusted by […] of the Testing Drug Amount: −47.3%
  Change of WOMAC Joint Stiffness score from baseline (±SEM): −18.8(±2.5) mm
  Percentage of improvement from baseline, WOMAC Joint Stiffness score: −27.6%
[8]
  Change of WOMAC Joint Stiffness score from baseline (±SEM), adjusted by […] of the Testing Drug Amount: −40.0(±5.1) mm
  Percentage of improvement from baseline, WOMAC Joint Stiffness score, adjusted by […] of the Testing Drug Amount: −58.8%
  Change of WOMAC Joint Stiffness score from baseline (±SEM): −23.3(±3.0) mm
  Percentage of improvement from baseline, WOMAC Joint Stiffness score: −34.3%
[9]
  Change of WOMAC Joint Stiffness score from baseline (±SEM), adjusted by […] of the Testing Drug Amount: −45.5(±5.3) mm
  Percentage of improvement from baseline, WOMAC Joint Stiffness score, adjusted by […] of the Testing Drug Amount: −66.9%
  Change of WOMAC Joint Stiffness score from baseline (±SEM): −26.5(±3.1) mm
  Percentage of improvement from baseline, WOMAC Joint Stiffness score: −39.0%
[10]
  Change of WOMAC Joint Stiffness score from baseline (±SEM), adjusted by […] of the Testing Drug Amount: −51.1(±5.8) mm
  Percentage of improvement from baseline, WOMAC Joint Stiffness score, adjusted by […] of the Testing Drug Amount: −75.1%
  Change of WOMAC Joint Stiffness score from baseline (±SEM): −29.8(±3.4) mm
  Percentage of improvement from baseline, WOMAC Joint Stiffness score: −43.8%
[11]
  Change of WOMAC Joint Stiffness score from baseline (±SEM), adjusted by […] of the Testing Drug Amount: −41.9(±5.3) mm
  Percentage of improvement from baseline, WOMAC Joint Stiffness score, adjusted by […] of the Testing Drug Amount: −67.4%
  Change of WOMAC Joint Stiffness score from baseline (±SEM): −24.4(±3.1) mm
  Percentage of improvement from baseline, WOMAC Joint Stiffness score: −39.3%
[12]
  Change of WOMAC Joint Stiffness score from baseline (±SEM), adjusted by […] of the Testing Drug Amount: −19.3(±4.6) mm
  Percentage of improvement from baseline, WOMAC Joint Stiffness score, adjusted by […] of the Testing Drug Amount: −31.2%
  Change of WOMAC Joint Stiffness score from baseline (±SEM): −11.3(±2.7) mm
  Percentage of improvement from baseline, WOMAC Joint Stiffness score: −18.2%
[13]
  Change of WOMAC Joint Stiffness score from baseline (±SEM), adjusted by […] of the Testing Drug Amount: −30.2(±5.0) mm
  Percentage of improvement from baseline, WOMAC Joint Stiffness score, adjusted by […] of the Testing Drug Amount: −48.5%
  Change of WOMAC Joint Stiffness score from baseline (±SEM): −17.6(±2.9) mm
  Percentage of improvement from baseline, WOMAC Joint Stiffness score: −28.3%
